For assay [1], the target named is T1, TMEM87A (GolpHCat) (Homo sapiens, UniProt Q8NBN3).
T1 sequence (Q8NBN3 1-555): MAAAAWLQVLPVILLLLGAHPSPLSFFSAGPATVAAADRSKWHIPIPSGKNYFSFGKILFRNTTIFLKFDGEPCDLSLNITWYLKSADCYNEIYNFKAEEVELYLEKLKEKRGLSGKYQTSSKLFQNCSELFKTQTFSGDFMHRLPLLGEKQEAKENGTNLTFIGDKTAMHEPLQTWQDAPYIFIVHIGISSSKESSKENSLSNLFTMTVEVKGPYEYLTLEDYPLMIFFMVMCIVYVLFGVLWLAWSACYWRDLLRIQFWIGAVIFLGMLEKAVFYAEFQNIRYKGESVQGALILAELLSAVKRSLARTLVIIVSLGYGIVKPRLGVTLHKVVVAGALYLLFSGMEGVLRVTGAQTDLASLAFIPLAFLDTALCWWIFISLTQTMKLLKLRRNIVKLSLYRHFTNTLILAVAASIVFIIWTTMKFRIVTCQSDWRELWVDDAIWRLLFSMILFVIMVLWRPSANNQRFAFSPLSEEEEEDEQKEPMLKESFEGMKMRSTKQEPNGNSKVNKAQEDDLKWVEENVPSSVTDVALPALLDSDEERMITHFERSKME
The experiment in a line: cryo-EM structure at […] Å; co-purified lipid, assigned from density shape and Golgi lipid composition. The assay is classed as binding. Also noted: full-length hTMEM87A, M1-E555; modelled D38-P473.

Assay [2] addresses T2, TMEM87A (GolpHCat) (Homo sapiens, UniProt Q8NBN3, A308M).
T2 construct: full-length hTMEM87A, M1-E555
T2 sequence (Q8NBN3 1-555 A308M): T1 sequence (Q8NBN3 1-555) with A308M
As to the kind of experiment: cryo-EM structure at ~[…] Å; co-purified lipid density. The assay is classed as binding.

Assay [3] addresses T1, TMEM87A (GolpHCat). As to the kind of experiment: cryo-EM structure at ~[…] Å with […] sodium gluconate; IC50 from whole-cell patch clamp in CHO-K1 cells. The class given is cell-based. Also noted: full-length hTMEM87A, M1-E555 (isoform 1, NP_056312.2), EGFP-Twin-strep tag. On the technique in general: Patch clamp records ionic current or voltage across a cell membrane.

Numbering of substitutions follows the chain as printed.

As to `CCCCCCCC/C=C\CCCCCCCC(=O)O[C@H](COC(=O)CCCCCCCCCCCCCCC)COP(=O)(O)OCCN` [PE, 1-palmitoyl-2-oleoyl-sn-glycerol-3-phosphoethanolamine], the “cryo-EM structure at 3.1 Å; co-purified lipid, assigned from density shape and G” value on TMEM87A (GolpHCat) [1] is “PE was co-purified with hTMEM87A, suggesting that PE tightly and stably binds to TMEM87A”. For the same molecule, the “cryo-EM structure at ~3.1 Å; co-purified lipid density” value at TMEM87A (GolpHCat) [2] is given as “the PE density in hTMEM87A A308M was displaced to a position similar to that of the S6 state”.

Molecule `O=C(O)[C@H](O)[C@@H](O)[C@H](O)[C@H](O)CO` [gluconate] had an IC50 against TMEM87A (GolpHCat) [3] of 100 nM.

In general, IC50 refers to the midpoint of a concentration-inhibition curve. Lower therefore signals inhibition by little substance.

For the origin of these results see paper PMC11239671, “GolpHCat (TMEM87A), a unique voltage-dependent cation channel in Golgi apparatus, contributes to Golgi-pH maintenance and hippocampus-dependent memory” (Nature Communications, 2024).
